US20150086530A1, “DOSING REGIMENS FOR THE TREATMENT OF POMPE DISEASE” (Amicus Therapeutics, Inc., priority 2012, published 2015)
Where two headings read alike, the source gives them in different places.

Experiments:
[1] = Plasma AT2220 (1-deoxynojirimycin hydrochloride) pharmacokinetics by LC-MS/MS in Pompe patients; assay type: in vivo, human; settings: for half-life / AUC(0-t) / AUC(0-inf) / Cmax / Tmax: human, plasma
Experimental: Blood samples for pharmacokinetic analysis will be collected before dosing 1-deoxynojirimycin hydrochloride and at 1 hour after administration of 1-deoxynojirimycin hydrochloride (i.e., immediately before initiation of the alglucosidase alfa infusion) and over the 24-hour period after initiation of the alglucosidase alfa infusion. Plasma and WBC GAA enzyme activity, plasma 1-deoxynojirimycin hydrochloride concentrations and plasma anti-rhGAA antibody titer will be determined from the collected blood samples at the times summarized in Table 2. A 12-lead ECG will be performed at the end of the alglucosidase alfa infusion, immediately after collection of the post-infusion blood sample.
Concentrations of 1-deoxynojirimycin hydrochloride in blood samples will be measured in plasma using a validated LC-MS/MS assay. GAA activity in plasma will be determined by a validated assay measuring enzyme activity using 4-MUG, with and without Con A. GAA protein levels will be measured by Western blotting using anti-human GAA antibody.
Non-compartmental pharmacokinetic parameters of AUC0-t, AUCinfinity, Cmax, tmax, kel and half-life will be calculated from plasma 1-deoxynojirimycin hydrochloride concentrations and plasma rhGAA enzyme levels. Pharmacokinetic parameters will be summarized by treatment using descriptive statistics. The AUC0-t, AUCinfinity ratios for GAA enzyme activity alone or after administration with 1-deoxynojirimycin hydrochloride will be calculated. Pharmacokinetic and pharmacodynamic data for those subjects receiving Myozyme® and Lumizyme® will be analyzed separately.

[2] = Safety assessment in Pompe patients (adverse events, urine Hex4, CPK, ALT/AST, muscle strength); assay type: in vivo, human; settings: for Adverse event: Intensity / Adverse event: Relation to Study Drug? / Adverse event: Was Event Serious?: per adverse event
From the text: Dose escalation to the next dose level of 1-deoxynojirimycin hydrochloride may proceed following review of safety and tolerability data from the previous dose level group(s). Safety data reviewed will include adverse events (including infusion reactions), clinical laboratory tests (including creatine kinase, LDH (LDH-5), alkaline phosphatase, AST, ALT), Hex4, 12-Lead ECGs, physical examinations, muscle strength tests and vital signs.
Safety parameters will be assessed by review of changes in physical exam findings, vital signs, ECG changes over time, clinical labs, Hex4 and adverse events.
Blood samples for clinical laboratory tests (hematology, serum chemistry) and urinalyses will be collected according to the schedule in Table 1. • Hematology tests include total hemoglobin, hematocrit, erythrocyte, platelet and leukocyte counts with differential. • Coagulation (screening only) includes INR and aPTT. • Serum chemistry includes measurement of AST, ALT, alkaline phosphatase, total bilirubin, creatinine, creatine kinase, urea, glucose, calcium, sodium, potassium, magnesium, total protein, albumin, bicarbonate, LDH (LDH-5), blood urea nitrogen, chloride, and phosphate. • Urinalysis includes color, appearance, specific gravity, pH, protein, glucose, ketones, blood, leukocyte esterase, nitrite, bilirubin, urobilinogen and microscopy of sediment
Muscular strength tests, assessed by hand held dynamometer, will be conducted at Screening, Days −1 and 7 of each period and at Follow-up. Proximal and distal muscle groups will be evaluated.

[3] = system: T cells derived from blood from 50 healthy donors; assay: Ex vivo T cell immunogenicity (EpiScreen assay); assay type: cell-based, human; settings: T cells from 50 healthy donors, addition of AT2220
From the text: By stabilizing the folded and active form of the rhGAA enzyme, AT2220 may mitigate ERT-induced immunogenicity since unfolded and aggregated proteins are generally more antigenic than properly folded proteins. […] The studies utilized Antitope Ltd.'s EpiScreen™ assay and are being repeated in samples from the Pompe patients in the study described by Examples 1-3.

GAA = GAA (Homo sapiens, UniProt P10253); assay: Physical stability of rhGAA in neutral pH buffer (thermal denaturation, enzymatic activity); assay type: biochemical; parameters: purchased Genzyme Corporation; settings: thermal denaturation and enzymatic activity

**Q.** Which results are given for `OC[C@H]1NC[C@H](O)[C@@H](O)[C@@H]1O` [AT2220, (2R,3R,4R,5S)-2-hydroxymethyl-piperidine-3,4,5-triol]?
**A.** half-life ([1]; oral, 250 mg, Cohort 3, 250 mg AT2220, Mean, N=6, read-out: Plasma AT2220 T½ (converted)): 3.7 h; AUC(0-t) ([1]; oral, 250 mg, Cohort 3, 250 mg AT2220, Median, N=6, read-out: Plasma AT2220 AUC0-T): 20800 ng·h/mL; AUC(0-inf) ([1]; oral, 250 mg, Cohort 3, 250 mg AT2220, Median, N=6, read-out: Plasma AT2220 AUC0-∞): 20900 ng·h/mL; Cmax ([1]; oral, 250 mg, Cohort 3, 250 mg AT2220, Median, N=6, read-out: Plasma AT2220 Cmax): 3180 ng/mL; Tmax ([1]; oral, 250 mg, Cohort 3, 250 mg AT2220, Median, N=6, read-out: Plasma AT2220 Tmax): 2 h; half-life ([1]; oral, 250 mg, Cohort 3, 250 mg AT2220, Median, N=6, read-out: Plasma AT2220 T½ (converted)): 3.6 h; AUC(0-t) ([1]; oral, 250 mg, Cohort 3, 250 mg AT2220, individual subjects, read-out: Plasma AT2220 AUC0-T): 18700 ng·h/mL; AUC(0-inf) ([1]; oral, 250 mg, Cohort 3, 250 mg AT2220, individual subjects, read-out: Plasma AT2220 AUC0-∞): 19300 ng·h/mL; Tmax ([1]; oral, 250 mg, Cohort 3, 250 mg AT2220, individual subjects, read-out: Plasma AT2220 Tmax): 3 h; half-life ([1]; oral, 250 mg, Cohort 3, 250 mg AT2220, individual subjects, read-out: Plasma AT2220 T½ (converted)): 4.6 h; half-life ([1]; po, 50 mg, 50 mg single oral dose (N=4), arithmetic mean (SD), read-out: t½, plasma AT2220 (converted)): 3.1 h; AUC(0-t) ([1]; po, 50 mg, 50 mg single oral dose (N=4), geometric mean (CV %), read-out: AUC0-T, plasma AT2220): 6970 ng·h/mL; AUC(0-inf) ([1]; po, 50 mg, 50 mg single oral dose (N=4), geometric mean (CV %), read-out: AUC0-∞, plasma AT2220): 7010 ng·h/mL; Tmax ([1]; po, 50 mg, 50 mg single oral dose (N=4), median (range), read-out: Tmax, plasma AT2220): 2 h; Cmax ([1]; po, 50 mg, 50 mg single oral dose (N=4, Cohort 1), geometric mean (CV %), read-out: Cmax, plasma AT2220): 1040 ng/mL; half-life ([1]; po, 100 mg, 100 mg single oral dose (N=6), arithmetic mean (SD), read-out: t½, plasma AT2220 (converted)): 3.4 h; AUC(0-t) ([1]; po, 100 mg, 100 mg single oral dose (N=6), geometric mean (CV %), read-out: AUC0-T, plasma AT2220): 13000 ng·h/mL; AUC(0-inf) ([1]; po, 100 mg, 100 mg single oral dose (N=6), geometric mean (CV %), read-out: AUC0-∞, plasma AT2220): 13100 ng·h/mL; Tmax ([1]; po, 100 mg, 100 mg single oral dose (N=6), median (range), read-out: Tmax, plasma AT2220): 3 h; Cmax ([1]; po, 100 mg, 100 mg single oral dose (N=6, Cohort 2), geometric mean (CV %), read-out: Cmax, plasma AT2220): 1860 ng/mL; increase in mean AUC, plasma AT2220 ([1]; to 250 mg): 3.2 fold; increase in mean Cmax, plasma AT2220 ([1]; to 250 mg): 3.0 fold; Adverse event: Intensity ([2]; Cohort 1 (50 mg 1-DNJ-HCl)): Mild; Adverse event: Relation to Study Drug? ([2]; Cohort 1 (50 mg 1-DNJ-HCl)): Unrelated; Adverse event: Was Event Serious? ([2]; Cohort 1 (50 mg 1-DNJ-HCl)): No; ALT/AST ([2]; Cohort 1 (50 mg), 4 subjects): No drug related elevations; CPK ([2]; Cohort 1 (50 mg), 4 subjects): no drug related elevations beyond subjects' baseline values range; Muscle strength ([2]; Cohort 1 (50 mg), 4 subjects): No change between Periods 1 and 2; SAE / drug-related AEs ([2]; Cohort 1 (50 mg), 4 subjects): No SAE or drug-related AEs; Urine Hex4 ([2]; Cohort 1 (50 mg), 4 subjects): no drug related elevations; Adverse event: Intensity ([2]; Cohort 2 (100 mg 1-DNJ-HCl)): Mild; Adverse event: Relation to Study Drug? ([2]; Cohort 2 (100 mg 1-DNJ-HCl)): Unrelated; Adverse event: Was Event Serious? ([2]; Cohort 2 (100 mg 1-DNJ-HCl)): No; ALT/AST ([2]; Cohort 2 (100 mg), 5 subjects): No drug related elevations; CPK ([2]; Cohort 2 (100 mg), 5 subjects): no drug related elevations beyond subjects' baseline range; Hex4 ([2]; Cohort 2 (100 mg), 5 subjects): no drug related elevations; Muscle strength ([2]; Cohort 2 (100 mg), 5 subjects): No change between Periods 1 and 2; SAE / drug-related AEs ([2]; Cohort 2 (100 mg), 5 subjects): No SAE or drug-related AEs; Adverse Event ([2]; Cohort 2 (rhGAA alone, then rhGAA + 100 mg 1-DNJ-HCl), per patient): None; CPK levels ([2]; Cohorts 1 and 2): did not appreciably change from baseline; relation of reported adverse events to drug ([2]; Cohorts 1 and 2, only mild, transient adverse events reported): none of which were related to AT2220; urine hex 4 levels ([2]; following a single dose of AT2220, Cohorts 1 and 2): either did not change from baseline, or did not show any consistent trend; tolerability ([2]; single doses co-administered with ERT, Cohorts 1-4 (50-600 mg)): well-tolerated, with no drug-related adverse events reported; safety and tolerability ([2]; single doses of 50 mg and 100 mg, patients with Pompe Disease): safe and well-tolerated; immunogenicity of Myozyme and Lumizyme [3]: may significantly reduce the immunogenicity; physical stability of rhGAA (GAA): significant concentration-dependent increases
